{
  "source": "patent US20130017174A1",
  "about": "“COMPOSITIONS AND METHODS FOR INCREASING HEALTH AND REDUCING PATHOGENIC BACTERIA IN ANIMALS” (The Board of Trustees of the University of Arkansas, priority 2011, published 2013)",
  "system": "Salmonella enteritidis",
  "test": "In vitro testing: SE recovery from inoculated chick starter feed",
  "format": "cell-based",
  "conditions": "feed with increasing amounts of sodium nitrate (1-1000 ppm), 42° C. for 24 hours, vs control (FIG. 1)",
  "protocol": "Briefly, 1.25 grams of chick starter feed was measured into 13×100 mm borosilicate tubes and autoclaved. Nitrate was mixed into the feed before autoclaving at concentrations of 1000 ppm, 100 ppm, 10 ppm, or 1 ppm (Sodium Nitrate, Sigma Chemical Co., St. Louis, Mo.).\nThe feed also contained 0.1% lactose as a prebiotic. The feed was suspended in 4.5 mL sterile saline and inoculated with 0.5 mL of Salmonella enteriditis (SE) culture containing approximately 10^4 cfu/ml. The tubes were treated with either 0.6 ml of 10^6 cfu/ml of FloraMax-B11® probiotic or saline as a negative control. After administering the treatment, the tubes were agitated and incubated at 42° C. for 24 hours. The tubes then were agitated and the content was serially diluted and plated on Brilliant Green Agar (BGA) containing novobiocin (250 ml) and nalidixic acid (20 μl/ml) to select for SE. Typical SE colonies were counted after 24 hours of incubation.",
  "data": [
    {"smiles": "O=[N+]([O-])[O-].[Na+]", "note": "[sodium nitrate, Sodium Nitrate]", "values": [
      {"measurement": "recovery of SE", "value": "decreased recovery of SE as compared to the control"}
    ]}
  ]
}
